Columns and labels:
gastric acid secretion = test: Gastric acid secretion activity test using pyloric ligation in rats (Shay rat method); type: in vivo; details: male SD rats, 20 mg/kg injected into the duodenal region, 4 hours, result given in words only
Method: Gastric acid secretion activity test using pyloric ligation in rats (Shay rat method)
Pyloric ligation was conducted based on the method of Shay et al. [Gastroenterology, 5, 43 (1945)]. Male rats of SD strain were fasted for 24 hours; their abdomens were sectioned during anesthesia under ether. The duodenal and pyloric regions were exposed and the latter was ligated. A solution of a test compound (10 mg/ml) prepared by use of 1.5w parts of dimethylacetamide, 68.5% parts of polyethyleneglycol (PEG-400) and 30% parts of physiological saline solution, was injected into the duodenal region for the dose to be 20 mg/kg by use of a 1-ml syringe and an injection needle (26G). After injection of the test compound, the abdominal region was sutured. The animals were allowed to a stand for 4 hours without feeding food and water and then sacrified with carbon dioxide gas. The stomach was excised and gastric juice was gathered. The gastric juice sample was centrifuged (4° C., 2500 rpm, 15 minutes). The amount of the supernatant was measured to be as the gastric secretion. The acidity of the gastric juice was determined by the amount (ml) of 0.01 N sodium hydroxide solution required for titration of 0.1 ml of the supernatant to pH 7.0 by use of-an auto-titrating apparatus. The value of gastric acid secretion was calculated from the value of gastric secretion and the acidity of gastric juice. The inhibiting rate was obtained from the values of gastric acid secretion of the control group and of the administered group.

[1] = molecular target: proton.potassium-adenosine triphosphatase (H+.K+-ATPase) (Sus scrofa, UniProt P19156); test: Proton.potassium-adenosine triphosphatase (H+.K+-ATPase) inhibition test; type: biochemical; details: microsomal fraction of porcine gastric mucosa, pH=6.85, 37° C.; result given in words only
Method: Proton.potassium-adenosine triphosphatase (H^+.K^+ -ATPase) activation test
According to the method reported by Sachs et al. [J. Biol. Chem., 251, 7690 (1976)], a microsomal fraction obtained from homogenized fresh porcine gastric mucosa by density gradient ultracentrifugation was used as the proton.potassium-adenosine triphosphatase preparation, 10 μl of a solution of a test compound in dimethylsulfoxide were added to 0.75 ml of 70 mM tris-HCl buffer solution (magnesium chloride 5 mM, potassium chloride 20 mM and pH=6.85) containing from 30 to 80 μg/ml (in terms of protein concentration) of the enzyme preparation and the mixture was incubated for 45 minutes at 37° C. with shaking at 200 times per minute. The enzyme reaction was initiated by adding 0.25 ml of 8 mM disodium adenosine triphosphate solution. After 20 minutes of the reaction time, the reaction was stopped by adding 1 ml of a 10k trichloroacetic acid-active carbon (100 mg) solution. The reaction solution was centrifuged (4° C., 3000 rpm, 15 minutes) and the inorganic phosphate in the supernatant prepared from adenosine triphosphate by hydrolysis was measured by colorimetry, according to the method of Yoda and Hokin [Biochem. Biophys. Res. Commun., 40, 880 (1970)]. In a similar manner, the amount of inorganic phosphate was measured in a reaction solution in the absence of potassium chloride. From the difference between the phosphate amounts in the presence and absence of potassium chloride, the proton-potassium-adenosine triphosphatase activity was calculated. Based on the activity value in the control and the values in the test compound at the various concentrations tested, the inhibiting rates (%) and then the 50? inhibiting concentrations (IC50) to proton.potassium-adenosine triphosphatase activity were obtained.

[2] = tested on: Helicobacter pylori strains 9470, 9472 and 9474; test: Antibacterial activity against Helicobacter pylori; type: cell-based; details: strains 9470, 9472 and 9474, 37° C., 3 days, slightly aerobic; result given in words only
Method: Antibacterial activity against Helicobacter pylori The antibacterial activity of the compounds of the present invention were evaluated by measuring the minimum inhibitory concentration values (MIC) of the present compounds against Helicobacter pylori strains 9470, 9472 and 9474. These strains of Helicobacter pylori were incubated for 4 days on a plate medium. The medium was prepared by dissolving brain heart infusion agar (Product of DIFCO) in a defined amount of distilled water, by sterilization in an autoclave, injecting horse blood (Product of Nihon Seibutsu Zairyo Co.) into each plate for the medium to contain 7% of the blood and by solidifying. Under slightly aerobic conditions, Helicobacter pylori cultivated at 37° C. for 4 days was suspended in a physiological saline solution for its inocular size to be about 10^8 CFU/ml. The suspension was diluted 100 times, and about 10 μl of the diluted suspension was inoculated on a medium for MIC determination. The medium for MIC determination used had the same compounds as those for preculture. […] In a similar way to the preculture, Helicobacter pylori was cultivated at 37° C. for 3 days under slightly aerobic conditions. […] The minimum concentration which gave no bacterial growth was regarded as MIC of the compound of the present invention.

Sequence of proton.potassium-adenosine triphosphatase (H+.K+-ATPase) (P19156 whole entry): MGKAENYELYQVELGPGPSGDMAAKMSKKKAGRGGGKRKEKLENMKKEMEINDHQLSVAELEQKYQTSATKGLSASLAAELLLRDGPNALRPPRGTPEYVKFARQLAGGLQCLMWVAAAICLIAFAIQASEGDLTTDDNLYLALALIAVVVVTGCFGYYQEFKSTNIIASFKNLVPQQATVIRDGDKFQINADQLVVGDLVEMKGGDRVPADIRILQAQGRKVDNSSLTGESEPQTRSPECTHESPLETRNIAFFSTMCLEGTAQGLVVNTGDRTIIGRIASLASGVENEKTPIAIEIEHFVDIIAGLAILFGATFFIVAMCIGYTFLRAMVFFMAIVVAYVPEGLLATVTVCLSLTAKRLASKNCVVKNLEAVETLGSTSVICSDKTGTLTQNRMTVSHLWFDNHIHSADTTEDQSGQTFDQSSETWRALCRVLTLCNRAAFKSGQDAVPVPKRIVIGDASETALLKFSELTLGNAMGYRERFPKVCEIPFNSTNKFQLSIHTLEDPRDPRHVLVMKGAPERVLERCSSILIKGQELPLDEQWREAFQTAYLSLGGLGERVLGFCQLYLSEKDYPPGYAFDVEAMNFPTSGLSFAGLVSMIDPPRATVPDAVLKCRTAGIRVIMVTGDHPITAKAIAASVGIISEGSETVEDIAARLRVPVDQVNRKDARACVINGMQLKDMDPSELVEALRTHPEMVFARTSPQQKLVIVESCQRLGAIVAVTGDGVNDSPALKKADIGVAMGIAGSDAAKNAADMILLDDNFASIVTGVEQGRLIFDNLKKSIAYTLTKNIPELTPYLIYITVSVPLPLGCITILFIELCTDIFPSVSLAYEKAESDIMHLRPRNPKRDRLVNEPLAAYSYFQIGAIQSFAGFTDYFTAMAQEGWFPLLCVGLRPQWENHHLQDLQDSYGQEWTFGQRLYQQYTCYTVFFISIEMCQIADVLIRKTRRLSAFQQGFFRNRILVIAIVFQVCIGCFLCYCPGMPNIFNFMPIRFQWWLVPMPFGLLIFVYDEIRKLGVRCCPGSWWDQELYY
Sequence of proton.potassium-adenosine triphosphatase (H+.K+-ATPase) (P18434 whole entry partner): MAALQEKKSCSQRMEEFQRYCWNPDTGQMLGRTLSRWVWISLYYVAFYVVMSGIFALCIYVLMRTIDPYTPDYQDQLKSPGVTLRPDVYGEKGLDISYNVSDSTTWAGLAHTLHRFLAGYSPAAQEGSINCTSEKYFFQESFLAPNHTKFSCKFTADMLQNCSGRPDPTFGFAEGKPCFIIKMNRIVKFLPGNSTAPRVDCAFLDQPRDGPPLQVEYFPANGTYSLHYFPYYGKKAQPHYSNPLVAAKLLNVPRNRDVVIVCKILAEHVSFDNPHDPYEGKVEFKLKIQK

inhibiting concentrations (IC50) to proton.potassium-adenosine triphosphatase activity [1]: excellent activity
minimum inhibitory concentration (MIC) against Helicobacter pylori [2]: excellent antibacterial activity
Structure (SMILES): CC=CCn1c(C)c(C)c2cnnc(OCc3ccc(Cl)cc3F)c21 [Example 48, 1-(2-Butenyl)-7-(4-chloro-2-fluorobenzyloxy)-2,3-dimethylpyrrolo[2,3-d]pyridazine]
inhibiting rate of gastric acid secretion (gastric acid secretion): excellent activity

— patent US6063782A, “Pyrrolopyridazine derivatives” (Sankyo Company, Limited, priority 1994, dated 2000)
